# Assay results: patent US20250171438A1 (Agios Pharmaceuticals, Inc., priority 2022, published 2025)
# Molecular target: T1, human PAH with the R408W mutation (Homo sapiens, UniProt P00439, R408W)
# T1 construct: expressed in transfected cells
# T1 sequence (P00439 1-452 R408W): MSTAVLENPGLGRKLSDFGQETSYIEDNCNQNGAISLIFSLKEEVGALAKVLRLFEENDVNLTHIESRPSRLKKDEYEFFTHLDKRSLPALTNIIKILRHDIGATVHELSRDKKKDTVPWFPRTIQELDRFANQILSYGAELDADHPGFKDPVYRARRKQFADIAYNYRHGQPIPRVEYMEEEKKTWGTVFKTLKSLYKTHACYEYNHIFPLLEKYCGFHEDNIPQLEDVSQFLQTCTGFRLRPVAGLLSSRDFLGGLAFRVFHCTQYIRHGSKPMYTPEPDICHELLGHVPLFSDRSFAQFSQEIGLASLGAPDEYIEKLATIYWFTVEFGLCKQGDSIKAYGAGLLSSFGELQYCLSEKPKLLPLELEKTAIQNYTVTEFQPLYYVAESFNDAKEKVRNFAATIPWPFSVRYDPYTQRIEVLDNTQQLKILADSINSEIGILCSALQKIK
# Assay: Cell Based Phenylalanine Flux Assay
# Conditions: A375 cells expressing human R408W PAH; 24 hrs compound incubation; 13C-Tyrosine by LC-MS; average where tested multiple times; read-out: AC50
row,Structure (SMILES),AC50 [nM]
1,CC1(C)CC=C(c2ncc(C(=O)N3CCc4[nH]cnc4[C@H]3c3nc4ccccc4s3)s2)CC1 [Example 1351],500 to 1000
2,"CC1(C)CC=C(c2ncc(C(=O)N3CCc4[nH]cnc4[C@@H]3c3nc4ccccc4s3)s2)CC1 [Example 1352, (R)-(4-(benzo[d]thiazol-2-yl)-6,7-dihydro-1H-imidazo[4,5-c]pyridin-5(4H)-yl)(2-(4,4-dimethylcyclohex-1-en-1-yl)thiazol-5-yl)methanone]",1000 to 5000
3,CC1(C)CCC(c2ncc(C(=O)N3CCc4[nH]cnc4[C@H]3c3nc4ccccc4s3)s2)CC1 [Example 1353],< 500
4,"CC1(C)CCC(c2ncc(C(=O)N3CCc4[nH]cnc4[C@@H]3c3nc4ccccc4s3)s2)CC1 [Example 1354, (R)-(4-(benzo[d]thiazol-2-yl)-6,7-dihydro-1H-imidazo[4,5-c]pyridin-5(4H)-yl)(2-(4,4-dimethylcyclohexyl)thiazol-5-yl)methanone]",1000 to 5000
5,"O=C(c1cnc(-c2ccc(C(F)(F)F)nc2)s1)N1CCc2[nH]cnc2[C@@H]1c1nc2ccccc2s1 [Example 1355, (R)-(4-(benzo[d]thiazol-2-yl)-6,7-dihydro-1H-imidazo[4,5-c]pyridin-5(4H)-yl)(2-(6-(trifluoromethyl)pyridin-3-yl)thiazol-5-yl)methanone]",1000 to 5000
6,O=C(c1cnc(-c2ccc(C(F)(F)F)nc2)s1)N1CCc2[nH]cnc2[C@H]1c1nc2ccccc2s1 [Example 1356],500 to 1000
7,O=C(c1cnc(-c2cc(C(F)(F)F)ccn2)s1)N1CCc2[nH]cnc2[C@H]1c1nc2ccccc2s1 [Example 1357],< 500
8,"O=C(c1cnc(-c2cc(C(F)(F)F)ccn2)s1)N1CCc2[nH]cnc2[C@@H]1c1nc2ccccc2s1 [Example 1358, (R)-(4-(benzo[d]thiazol-2-yl)-6,7-dihydro-1H-imidazo[4,5-c]pyridin-5(4H)-yl)(2-(4-(trifluoromethyl)pyridin-2-yl)thiazol-5-yl)methanone]",1000 to 5000
9,Cc1c(-c2ncc(C(=O)N3CCc4[nH]cnc4[C@H]3c3nc4ccccc4s3)s2)cnn1C [Example 1359],< 500
10,"Cc1c(-c2ncc(C(=O)N3CCc4[nH]cnc4[C@@H]3c3nc4ccccc4s3)s2)cnn1C [Example 1360, (R)-(4-(benzo[d]thiazol-2-yl)-6,7-dihydro-1H-imidazo[4,5-c]pyridin-5(4H)-yl)(2-(1,5-dimethyl-1H-pyrazol-4-yl)thiazol-5-yl)methanone]",1000 to 5000
11,O=C(c1cnc(-c2cnn(CC(F)(F)F)c2)s1)N1CCc2[nH]cnc2[C@H]1c1nc2ccccc2s1 [Example 1361],< 500
12,"O=C(c1cnc(-c2cnn(CC(F)(F)F)c2)s1)N1CCc2[nH]cnc2[C@@H]1c1nc2ccccc2s1 [Example 1362, (R)-(4-(benzo[d]thiazol-2-yl)-6,7-dihydro-1H-imidazo[4,5-c]pyridin-5(4H)-yl)(2-(1-(2,2,2-trifluoroethyl)-1H-pyrazol-4-yl)thiazol-5-yl)methanone]",1000 to 5000
13,O=C(c1nnc(C2CC2)o1)N1CCc2[nH]cnc2[C@H]1c1nc2ccccc2s1 [Example 1363],< 500
14,"O=C(c1nnc(C2CC2)o1)N1CCc2[nH]cnc2[C@@H]1c1nc2ccccc2s1 [Example 1364, (R)-(4-(benzo[d]thiazol-2-yl)-6,7-dihydro-1H-imidazo[4,5-c]pyridin-5(4H)-yl)(5-cyclopropyl-1,3,4-oxadiazol-2-yl)methanone]",1000 to 5000
15,"O=C(c1nnc(-c2ccc(F)cn2)o1)N1CCc2[nH]cnc2[C@@H]1c1nc2ccccc2s1 [Example 1366, (R)-(4-(benzo[d]thiazol-2-yl)-6,7-dihydro-1H-imidazo[4,5-c]pyridin-5(4H)-yl)(5-(5-fluoropyridin-2-yl)-1,3,4-oxadiazol-2-yl)methanone]",1000 to 5000
16,O=C(c1nnc(-c2c(F)cccc2F)o1)N1CCc2[nH]cnc2[C@H]1c1nc2ccccc2s1 [Example 1367],< 500
17,"O=C(c1nnc(-c2c(F)cccc2F)o1)N1CCc2[nH]cnc2[C@@H]1c1nc2ccccc2s1 [Example 1368, (R)-(4-(benzo[d]thiazol-2-yl)-6,7-dihydro-1H-imidazo[4,5-c]pyridin-5(4H)-yl)(5-(2,6-difluorophenyl)-1,3,4-oxadiazol-2-yl)methanone]",< 500
18,O=C(c1nnc(-c2ccc(F)cc2)o1)N1CCc2[nH]cnc2[C@H]1c1nc2ccccc2s1 [Example 1369],< 500
19,"O=C(c1nnc(-c2ccc(F)cc2)o1)N1CCc2[nH]cnc2[C@@H]1c1nc2ccccc2s1 [Example 1370, (R)-(4-(benzo[d]thiazol-2-yl)-6,7-dihydro-1H-imidazo[4,5-c]pyridin-5(4H)-yl)(5-(4-fluorophenyl)-1,3,4-oxadiazol-2-yl)methanone]",1000 to 5000
20,Cc1nc(-c2ccccn2)oc1C(=O)N1CCc2[nH]cnc2[C@H]1c1nc2ccccc2s1 [Example 1371],< 500

row,Structure (SMILES),AC50 [nM]
1,"Cc1nc(-c2ccccn2)oc1C(=O)N1CCc2[nH]cnc2[C@@H]1c1nc2ccccc2s1 [Example 1372, (R)-(4-(benzo[d]thiazol-2-yl)-6,7-dihydro-1H-imidazo[4,5-c]pyridin-5(4H)-yl)(4-methyl-2-(pyridin-2-yl)oxazol-5-yl)methanone]",> 5000
2,O=C(c1cnc(-c2ncccc2F)s1)N1CCc2[nH]cnc2[C@H]1c1nc2ccccc2s1 [Example 1373],< 500
3,"O=C(c1cnc(-c2ncccc2F)s1)N1CCc2[nH]cnc2[C@@H]1c1nc2ccccc2s1 [Example 1374, (R)-(4-(benzo[d]thiazol-2-yl)-6,7-dihydro-1H-imidazo[4,5-c]pyridin-5(4H)-yl)(2-(3-fluoropyridin-2-yl)thiazol-5-yl)methanone]",500 to 1000
4,"Cc1nc(-c2cnn(C)c2)oc1C(=O)N1CCc2[nH]cnc2[C@@H]1c1nc2ccccc2s1 [Example 1375, (R)-(4-(benzo[d]thiazol-2-yl)-6,7-dihydro-1H-imidazo[4,5-c]pyridin-5(4H)-yl)(4-methyl-2-(1-methyl-1H-pyrazol-4-yl)oxazol-5-yl)methanone]",1000 to 5000
5,Cc1nc(-c2cnn(C)c2)oc1C(=O)N1CCc2[nH]cnc2[C@H]1c1nc2ccccc2s1 [Example 1376],< 500
6,"Cc1nc(-c2cnn(C)c2)oc1C(=O)N1CCc2[nH]cnc2[C@@H]1c1nc2c(F)cccc2s1 [Example 1377, (R)-(4-(4-fluorobenzo[d]thiazol-2-yl)-6,7-dihydro-1H-imidazo[4,5-c]pyridin-5(4H)-yl)(4-methyl-2-(1-methyl-1H-pyrazol-4-yl)oxazol-5-yl)methanone]",> 5000
7,"Cc1nc(-c2cnn(C)c2)oc1C(=O)N1CCc2[nH]cnc2[C@H]1c1nc2c(F)cccc2s1 [Example 1378, (S)-(4-(4-fluorobenzo[d]thiazol-2-yl)-6,7-dihydro-1H-imidazo[4,5-c]pyridin-5(4H)-yl)(4-methyl-2-(1-methyl-1H-pyrazol-4-yl)oxazol-5-yl)methanone]",< 500
8,Cc1nn(C)cc1-c1ncc(C(=O)N2CCc3[nH]cnc3[C@H]2c2nc3ccccc3s2)s1 [Example 1379],< 500
9,"Cc1nn(C)cc1-c1ncc(C(=O)N2CCc3[nH]cnc3[C@@H]2c2nc3ccccc3s2)s1 [Example 1380, (R)-(4-(benzo[d]thiazol-2-yl)-6,7-dihydro-1H-imidazo[4,5-c]pyridin-5(4H)-yl)(2-(1,3-dimethyl-1H-pyrazol-4-yl)thiazol-5-yl)methanone]",1000 to 5000
10,Cc1nn(C)cc1-c1ncc(C(=O)N2CCc3[nH]cnc3[C@H]2c2nc3ccccc3s2)o1 [Example 1381],< 500
11,"Cc1nn(C)cc1-c1ncc(C(=O)N2CCc3[nH]cnc3[C@@H]2c2nc3ccccc3s2)o1 [Example 1382, (R)-(4-(benzo[d]thiazol-2-yl)-6,7-dihydro-1H-imidazo[4,5-c]pyridin-5(4H)-yl)(2-(1,3-dimethyl-1H-pyrazol-4-yl)oxazol-5-yl)methanone]",1000 to 5000
12,Cc1c(-c2ncc(C(=O)N3CCc4[nH]cnc4[C@H]3c3nc4ccccc4s3)o2)cnn1C [Example 1383],< 500
13,"Cc1c(-c2ncc(C(=O)N3CCc4[nH]cnc4[C@@H]3c3nc4ccccc4s3)o2)cnn1C [Example 1384, (R)-(4-(benzo[d]thiazol-2-yl)-6,7-dihydro-1H-imidazo[4,5-c]pyridin-5(4H)-yl)(2-(1,5-dimethyl-1H-pyrazol-4-yl)oxazol-5-yl)methanone]",1000 to 5000
14,Cn1cc(-c2ncc(C(=O)N3CCc4[nH]cnc4[C@H]3c3nc4ccccc4s3)s2)c(C2CC2)n1 [Example 1385],< 500
15,"Cn1cc(-c2ncc(C(=O)N3CCc4[nH]cnc4[C@@H]3c3nc4ccccc4s3)s2)c(C2CC2)n1 [Example 1386, (R)-(4-(benzo[d]thiazol-2-yl)-6,7-dihydro-1H-imidazo[4,5-c]pyridin-5(4H)-yl)(2-(3-cyclopropyl-1-methyl-1H-pyrazol-4-yl)thiazol-5-yl)methanone]",1000 to 5000
16,O=C(c1scnc1C1CC1)N1CCc2[nH]cnc2[C@H]1c1nc2ccccc2s1 [Example 1387],< 500
17,"O=C(c1scnc1C1CC1)N1CCc2[nH]cnc2[C@@H]1c1nc2ccccc2s1 [Example 1388, (R)-(4-(benzo[d]thiazol-2-yl)-6,7-dihydro-1H-imidazo[4,5-c]pyridin-5(4H)-yl)(4-cyclopropylthiazol-5-yl)methanone]",1000 to 5000
18,Cn1cc(-c2ncc(C(=O)N3CCc4[nH]cnc4[C@H]3c3nc4ccccc4s3)s2)c(C(F)(F)F)n1 [Example 1389],< 500
19,O=C(c1cnc(-c2cnn(CC(F)(F)F)c2)o1)N1CCc2[nH]cnc2[C@H]1c1nc2ccccc2s1 [Example 1391],< 500
